Where “and” joins values, the source holds several entries; their conditions need not be identical. Identical values can stand only once. Counter-ions that a name gives are not always drawn. Like-named read-outs stand apart in the source and are kept apart here.
Assays:
Test in all cases: MTT assay for 7-day toxicity assay
Assay type in all cases: cell-based
Glioma SNB19M (MGMT+) = conditions: for GI50: Glioma SNB19M (MGMT+)
Method: (§1) The cell culture techniques were carried out in a Class II microbiological safety cabinet which was swabbed with 70% IMS in distilled water before each use. […] MRC-5 cells were cultured in EMEM. Cells were grown in a humidified incubator containing 5% CO2 at 37° C. Cells were sub-cultured when growth exceeded approximately 80% confluence, normally twice weekly. The medium was aspirated from the flask and approximately 0.8 mL trypsin-EDTA 1× solution added. The cells were re-incubated at 37° C. until they visibly detached from the flask. The cell suspension was then re-suspended in 5 mL medium and 0.5-1 mL of the cell suspension was transferred to a new flask (25 cm^2) with 7 mL culture medium. The cells were further incubated at 37° C. incubator. Cells were disposed after passage nearly 30 times in order to minimize phenotypic drift. New batches of cells were taken from liquid nitrogen storage by thawing rapidly (37° C. water bath) and re-suspension in a 25 cm^2 flask with 10 mL of culture medium. Two passages were allowed to resume normal growth. For long-term maintenance, viable cells at 60-80% confluence were detached by minimum amount of trypsin/EDTA and re-suspended in sterile filtered freezing medium (95% FBS, 5% DMSO), transferred to sterile cryogenic vials, and frozen overnight at −20° C. followed by −80° C. for 1-2 days and stored in liquid nitrogen for long term storage.
(§2) Most test compounds, including temozolomide, were prepared as stock solution (100 mM) in DMSO and stored at −20° C. for not more than 6 months.
(§3) Glioma cell lines, SNB19 and U373, both MGMT transfected (i.e., SNB19M and U373M) and vector controls (i.e., SNB19V and U373V); colorectal carcinoma cell lines, HCT116, HT29, and DLD1; melanoma cell line, SKMEL-28; breast cell line, MCF-7; and normal human fetal lung fibroblast cell line, MRC-5; were harvested at 60-80% confluence—during the logarithmic phase of growth.
(§4) Following harvesting, cells in suspension were gently syringed through a 23 gauge needle to obtain a near-single cell suspension. The desired cell seeding densities were used and added into 96-well plates in 180 μL culture medium if only one test compound was to be added, or 160 μL if two test compounds were to be added in combination, which were allowed to attach at 37° C. (5% CO2) overnight. For the 7 day assay, the cell seeding density for different cell lines was as follows: SNB19V, SNB19M: 650 cells/well; U373V, U373M: 650 cells/well; SNB19VR, U373VR: 650 cells/well; HCT116, DLD-1, SKMEL-28, MRC-5, MCF-7: 400 cells/well.
(§5) The two peripheral lanes were used as blank wells (cell free) and filled with 200 μL of medium in order to minimise medium evaporation from the plate. A separate time zero (T0) plate was set up alongside other plates. Serial dilutions in tissue culture medium of a 100 mM stock of test compound in DMSO were prepared immediately before each assay to ten times the final concentrations required, and then 20 μL was added to each well (200 μL total media per well) to achieve final concentrations of 0.5 μM, 1 μM, 5 μM, 10 μM, 50 μM, 100 μM, 500 μM, and 1000 μM. A minimum of four wells received the same test compound concentration. To control wells, including those in the T0 plate, 20 μL of medium was added. […] A separate plate treated in the same way, but free of test compound, was used as a measure of cell viability at the time of drug addition (day 0).
(§6) After incubation at 37° C., 5% CO2 for 7 days (or immediately for the day 0 plate), cell viability was quantified using the MTT assay. 50 μL of sterile filtered MIT (3-(4,5-dimethylthiazol-2-yl)-2,5-diphenyltetrazolium bromide) (2 mg/mL in phosphate buffered saline) were added to each well (final concentration 0.4 mg/mL) and the plates were re-incubated for 4 hours to allow metabolic conversion of MTT by dehydrogenases in viable cells to insoluble formazan crystals.
(§7) The intensity of absorbance is directly proportional to cell viability.

Glioma SNB19V (MGMT−) = conditions: for GI50: Glioma SNB19V (MGMT−)
Method: as §1, §2, §3, §4, §5, §6, §7

Glioma U373M (MGMT+) = conditions: Glioma U373M (MGMT+)
Method: as §1, §2, §3, §4, §5, §6, §7

Glioma U373V (MGMT low) = conditions: Glioma U373V (MGMT low)
Method: as §1, §2, §3, §4, §5, §6, §7

[1] = 168 h, 7-day MTT, single determinations, read-out: GI50
[2] = 7-day MTT, single determinations, read-out: GI50
[3] = 7-day MTT, single determinations, hydrobromide, read-out: GI50

Row | SMILES | GI50 (Glioma SNB19M (MGMT+); [1]) [µM] | GI50 (Glioma SNB19M (MGMT+); [2]) [µM] | GI50 (Glioma SNB19V (MGMT−); [1]) [µM] | GI50 (Glioma SNB19V (MGMT−); [2]) | GI50 (Glioma U373M (MGMT+); [1]) [µM] | GI50 (Glioma U373M (MGMT+); [2]) [µM] | GI50 (Glioma U373V (MGMT low); [1]) [µM] | GI50 (Glioma U373V (MGMT low); [2]) [µM] | also measured
1 | NC(=O)c1ncn2c(=O)n(CC3CCCC3)nnc12 [GG-002, 3-(Cyclopentyl)methyl-8-carbamoylimidazotetrazin-4-one] | 796 | 602 | 888 | 751 µM | 642 | 728 | 790 | > 1000 | 
2 | CC#CCn1nnc2c(C(N)=O)ncn2c1=O [EE-002, 3-But-2-ynyl-4-oxo-3,4-dihydro-imidazo[5,1-d][1,2,3,5]tetrazine-8-carboxylic acid amide] | 38.1 | 37.1 | 33.5 | 45.8 µM | 41.1 | 25.1 | 42.1 | 31.1 | 
3 | C[Si](C)(C)C#CCn1nnc2c(C(N)=O)ncn2c1=O [EE-003, 4-Oxo-3-(3-trimethylsilanyl-prop-2-ynyl)-3,4-dihydro-imidazo[5,1-d][1,2,3,5]tetrazine-8-carboxylic acid amide] | 42.9 | 35.2 | 41.7 | 36.6 µM | 31.5 | 30 | 26.8 | 33.6 | 
4 | CC(=O)OCn1nnc2c(C(N)=O)ncn2c1=O [LL-005] | 46 | 34.7 | 56.6 | 40.1 µM | 45.6 | 33.3 | 15.7 | 8 | 
5 | NC(=O)c1ncn2c(=O)n(C3CCNCC3)nnc12 [HH-001, 3-Piperidin-4-yl-8-carbamoylimidazotetrazin-4-one hydrobromide] |  |  | 167 |  | 72 |  |  |  | GI50 (Glioma SNB19V (MGMT−); [3]): 190 µM; GI50 (Glioma U373M (MGMT+); [3]): 115 µM
6 | NC(=O)c1ncn2c(=O)n(Cc3ccsc3)nnc12 [CC-001, 4-oxo-3-(thiophen-3-ylmethyl)-3,4-dihydroimidazo[5,1-d][1,2,3,5]tetrazine-8-carboxamide] | 208 | 135 | 79.6 | 117 µM | 198 | 232 | 206 | 160 | 
7 | CC(C)(C)C(=O)OCn1nnc2c(C(N)=O)ncn2c1=O [LL-004, 2,2-Dimethyl-propionic acid 8-carbamoyl-4-oxo-imidazo[5,1-d][1,2,3,5]tetrazin-3-ylmethyl ester] |  |  | 47.2 | 35.9 µM and 51.9 µM |  |  |  |  | 
8 | CC(C)(C)[Si](C)(C)OCCn1nnc2c(C(N)=O)ncn2c1=O [NN-001, 3-(2-(tert-Butyldimethylsilyloxy)ethyl)-4-oxo-3,4-dihydroimidazo[5,1-d][1,2,3,5]tetrazine-8-carboxamide] |  |  |  |  |  |  |  |  | GI50 (Glioma SNB19M (MGMT+)): 182 µM and 263 µM; GI50 (Glioma SNB19V (MGMT−)): 128 µM and 97 µM; GI50 (Glioma U373M (MGMT+)): 98.2 µM and 68.3 µM; GI50 (Glioma U373V (MGMT low)): 172 µM and 229 µM
9 | CSCCn1nnc2c(C(N)=O)ncn2c1=O [KK-002, 3-(2-Methylsulfanyl-ethyl)-4-oxo-3,4-dihydro-imidazo[5,1-d][1,2,3,5]tetrazine-8-carboxylic acid amide] | 304 | 259 | 288 | 321 µM | 229 | 286 | 152 | 300 | 
10 | CN(C)C(=O)Cn1nnc2c(C(N)=O)ncn2c1=O [JJ-003, N,N-Dimethyl (8-Carbamoyl-oxoimidazo[5,1-d][1,2,3,5]tetrazin-3(4H)-yl)ethanamide] | 78.6 | 68.1 | 73.6 | 61.8 µM | 98.6 | 86.4 | 92.4 | 77.8 | 
11 | CC(C)(C)OC(=O)Cn1nnc2c(C(N)=O)ncn2c1=O [LL-006, (8-Carbamoyl-4-oxo-imidazo[5,1-d][1,2,3,5]tetrazin-3-yl)-acetic acid tert-butyl ester] |  |  |  |  |  |  |  |  | GI50 (Glioma SNB19M (MGMT+); 168 h, 7-day MTT, single determinations): 64 µM; GI50 (Glioma SNB19M (MGMT+); 7-day MTT, single determinations): 60.5 µM and 87.2 µM
12 | Cc1cc(Cn2nnc3c(C(N)=O)ncn3c2=O)on1 [CC-004, 3-(3-Methyl-isoxazol-5-ylmethyl)-4-oxo-3,4-dihydro-imidazo[5,1-d][1,2,3,5]tetrazine-8-carboxylic acid amide] |  |  | 38 | 54.9 µM | 29.3 |  |  |  | 
13 | NC(=O)c1ncn2c(=O)n(CC(=O)N3CCOCC3)nnc12 [JJ-005, N-(8-Carbamoyl-oxoimidazo[5,1-d][1,2,3,5]tetrazin-3(4H)-yl)ethanoyl morpholine] | 119 | 84.9 | 70.3 | 52.4 µM | 90.4 | 173 | 195 | 291 | 
14 | NC(=O)c1ncn2c(=O)n(CC3CC3)nnc12 [GG-003, 3-Cyclopropylmethyl-8-carbamoylimidazotetrazin-4-one] | 152 | 293 |  |  |  |  | 386 |  | 
15 | CCOP(=O)(Cn1nnc2c(C(N)=O)ncn2c1=O)OCC [VV-001, (8-Carbamoyl-4-oxo-imidazo[5,1-d][1,2,3,5]tetrazin-3-ylmethyl)-phosphonic acid diethyl ester] |  |  |  |  |  |  |  |  | GI50 (Glioma SNB19M (MGMT+)): 102 µM and 85.6 µM; activity compared with TMZ, in words (Glioma SNB19M (MGMT+); SNB19M glioma cell line): more active than TMZ; GI50 (Glioma SNB19V (MGMT−)): 73.6 µM and 63.4 µM; activity compared with TMZ, in words (Glioma SNB19V (MGMT−); SNB19V glioma cell line): more active than TMZ; GI50 (Glioma U373V (MGMT low)): 306 µM and 174 µM
16 | Cc1noc(Cn2nnc3c(C(N)=O)ncn3c2=O)n1 [CC-003, 3-(3-Methyl-[1,2,4]oxadiazol-5-ylmethyl)-4-oxo-3,4-dihydro-imidazo[5,1-d][1,2,3,5]tetrazine-8-carboxylic acid amide] | 198 | 208 | 208 | 176 µM | 196 | 391 |  |  | 
17 | COc1ccc([C@@H](C)n2nnc3c(C(N)=O)ncn3c2=O)cc1 [BB-003, (R)-3-(−1-(4-Methoxyphenyl)ethyl)-8-carbamoylimidazotetrazin-4-one] | 72.3 | 97.1 | 55.8 | 93.7 µM |  |  | 71 | 138 | 
18 | NC(=O)c1ncn2c(=O)n(CC3CCCCC3)nnc12 [GG-001, 3-Cyclohexylmethyl-8-carbamoylimidazotetrazin-4-one] | 831 | 445 |  |  |  |  | 717 | > 1000 | 
19 | CC(c1ccc(Br)cc1)n1nnc2c(C(N)=O)ncn2c1=O (racemic) [BB-005, (+/−) 3-(-1-(4-Bromophenyl)ethyl)-8-carbamoylimidazotetrazin-4-one] |  |  | 42 | 80.2 µM and 81 µM and 70.2 µM |  |  |  |  | 
20 | NC(=O)CCn1nnc2c(C(N)=O)ncn2c1=O [JJ-004, 3-(8-Carbamoyl-oxoimidazo[5,1-d][1,2,3,5]tetrazin-3(4H)-yl)propanamide] | 417 | 281 | 348 | 294 µM |  |  |  |  | 

— patent US8450479B2, “3-substituted-4-oxo-3,4-dihydro-imidazo[5,1-d][1,2,3,5-tetrazine-8-carboxylic acid amides and their use” (Pharminox Limited, priority 2007, dated 2013)
